Source: patent US20040082614A1, “Methods of treating infection using anitbiotics and glycogen phosphorylase inhibitors” (Pfizer Inc., priority 2002, published 2004)
Like-named read-outs stand apart in the source and are kept apart here. Each block holds one compound with its values, some of them ahead of it.

Assays:
Assay type in all cases: cell-based
Chlamydia pneumonia [1] = assay: Minimum inhibitory concentration (MIC) determination in Hep2 cells infected with Chlamydia pneumonia, inclusion bodies by fluorescent microscopy; settings: for antibacterial effects of the combination with azithromycin: MIC and MBC
Method: (§1) Hep2 cells maintained in Isocove's Modified Dulbecco's Medium (IMDM) were infected with Chlamydia pneumonia (0.5 MOI for two hours after one hour centrifugation). Cells were then treated with Compound A (0, 5, 10, 20, 30 or 40 μg/ml) or Compound B (0, 5, 10, 20, 30 or 40 μg/ml) alone and/or in combination with azithromycin (Pfizer, Inc., New York, N.Y.) 0, 0.005, 0.0158, 0.050, 0.158, or 0.5 μg/ml). For minimum inhibitory concentration (MIC) determination, cells were terminated for analysis at 72 h after the addition of drugs. For minimum bacteriocidal concentration (MBC) determination, drugs were removed at 72 h post-treatment, the media was replaced, and cells were maintained for an additional 72 h before termination. At termination, cells were analyzed for quantitation of inclusion bodies using fluorescent microscopy, and general cell viability by microscopic visualization.

Chlamydia pneumonia [2] = assay: Minimum bacteriocidal concentration (MBC) determination in Hep2 cells infected with Chlamydia pneumonia, drugs removed at 72 h, further 72 h; settings: for reduction of the MBC for azithromycin by the glycogen phosphorylase inhibitor: summary statement, combination with azithromycin
Method: as §1

Hep2 cells = assay: General cell viability / host cell appearance by microscopic visualization
Method: as §1

[3] = Chlamydia, 72 h, drug alone, 72 h after addition of drugs, read-out: MIC
[4] = combined with 5 μg/ml Compound A
[5] = combined with 30 μg/ml Compound B
[6] = Chlamydia, 72 h, drug alone, drugs removed at 72 h, additional 72 h, read-out: MBC

MIC (Chlamydia pneumonia [1]; [3]): 0.158 µg/mL
MIC (Chlamydia pneumonia [1]; Chlamydia, combined with 5 μg/ml Compound A, read-out: azithromycin concentration required for MIC): 0.05 µg/mL
MIC (Chlamydia pneumonia [1]; Chlamydia, combined with 10 μg/ml Compound A, read-out: azithromycin concentration required for MIC): 0.0158 µg/mL
MIC (Chlamydia pneumonia [1]; Chlamydia, combined with 10 μg/ml Compound B, read-out: azithromycin concentration required for MIC): 0.05 µg/mL
MIC (Chlamydia pneumonia [1]; Chlamydia, combined with 30 μg/ml Compound B, read-out: azithromycin concentration required for MIC): 0.0158 µg/mL
decrease in azithromycin concentration required for MIC (Chlamydia pneumonia [1]; [4]): 3 fold
decrease in azithromycin concentration required for MIC (Chlamydia pneumonia [1]; combined with 10 μg/ml Compound A): 10 fold
decrease in azithromycin concentration required for MIC (Chlamydia pneumonia [1]; combined with 10 μg/ml Compound B): 3 fold
decrease in azithromycin concentration required for MIC (Chlamydia pneumonia [1]; [5]): 10 fold
SMILES: CC[C@H]1OC(=O)[C@H](C)[C@@H](O[C@H]2C[C@@](C)(OC)[C@@H](O)[C@H](C)O2)[C@H](C)[C@@H](O[C@@H]2O[C@H](C)C[C@H](N(C)C)[C@H]2O)[C@](C)(O)C[C@@H](C)CN(C)[C@H](C)[C@@H](O)[C@]1(C)O [Azithromycin, 9a-aza-9a-methyl-9-deoxo-9a-homoerythromycin A]
MBC (Chlamydia pneumonia [2]; [6]): 0.5 µg/mL
MBC (Chlamydia pneumonia [2]; Chlamydia, combined with 5 μg/ml Compound A, read-out: azithromycin concentration required for MBC): 0.158 µg/mL
MBC (Chlamydia pneumonia [2]; Chlamydia, combined with 20 μg/ml Compound A, read-out: azithromycin concentration required for MBC): 0.05 µg/mL
MBC (Chlamydia pneumonia [2]; Chlamydia, combined with 30 μg/ml Compound B, read-out: azithromycin concentration required for MBC): 0.158 µg/mL
decrease in azithromycin concentration required for MBC (Chlamydia pneumonia [2]; [4]): 3 fold
decrease in azithromycin concentration required for MBC (Chlamydia pneumonia [2]; combined with 20 μg/ml Compound A): 10 fold
decrease in azithromycin concentration required for MBC (Chlamydia pneumonia [2]; [5]): 3 fold

MIC (Chlamydia pneumonia [1]; [3]): 20 µg/mL
SMILES: O=C(N[C@@H](Cc1ccc(F)cc1)C(=O)N1CCC(O)CC1)c1cc2cc(Cl)ccc2[nH]1 [Compound A, 5-chloro-1H-indole-2-carboxylic acid [(1S)-(4-fluoro-benzyl)-2-(4-hydroxypiperidin-1-yl)-2-oxo-ethyl]-amide]
concentrations associated with changes in host cell appearance (Hep2 cells; Hep2 host cells): ≥ 30000 ng/mL
antibacterial effects of the combination with azithromycin (Chlamydia pneumonia [1]): synergy of antibacterial effects
MBC (Chlamydia pneumonia [2]; [6]): 30 µg/mL
reduction of the MBC for azithromycin by the glycogen phosphorylase inhibitor (Chlamydia pneumonia [2]): 3-10 fold

MIC (Chlamydia pneumonia [1]; drug alone, 72 h after addition of drugs): > 40 µg/mL
SMILES: O=C(N[C@@H](Cc1ccccc1)[C@@H](O)C(=O)N1C[C@@H](O)[C@@H](O)C1)c1cc2cc(Cl)ccc2[nH]1 [Compound B]
changes in host cell appearance (Hep2 cells): not associated with any changes in host cell appearance
antibacterial effects of the combination with azithromycin (Chlamydia pneumonia [1]): synergy of antibacterial effects
MBC (Chlamydia pneumonia [2]; drug alone, drugs removed at 72 h, additional 72 h): > 40 µg/mL
reduction of the MBC for azithromycin by the glycogen phosphorylase inhibitor (Chlamydia pneumonia [2]): 3 fold
